Measured values published in ChEMBL document CHEMBL1201862, “PubChem BioAssay data set” (2004).
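Five concentrations, 48 hours, 96-well plates. Here, GI50 denotes the concentration required for 50% inhibition of growth.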 Activity calls are given as the source filed them. Cut-off read from the data, not from the text of the source: active = GI50 up to about 1.1 µM and inactive = higher.

Experiments:
Assay in all cases: inhibition of tumour cell growth, NCI panel, 48 h
[1] = system: 786-0
[2] = system: HCC 2998
[3] = system: HCT-15
[4] = system: HOP-62
[5] = system: HT-29
[6] = system: LOX IMVI
[7] = system: MOLT-4
[8] = system: Malme-3M
[9] = system: NCI-H23
[10] = system: SF-268
[11] = system: SF-295
[12] = system: SK-MEL-28
[13] = system: SK-MEL-2
[14] = system: SNB-75
[15] = system: U-251
[16] = system: UACC-62
[17] = system: HCT-116
[18] = system: HOP-92

Measured: GI50

NC(=O)c1ccc([N+](=O)[O-])cc1
inactive: [1] > 100 µM | [2] > 100 µM | [4] > 100 µM | [5] > 100 µM | [6] > 100 µM | [7] > 100 µM | [8] > 100 µM | [9] > 100 µM | [10] > 100 µM | [11] > 100 µM | [12] > 100 µM | [13] > 100 µM | [14] > 100 µM | [15] > 100 µM | [16] > 100 µM
> 100 µM: [3]

Cn1nc(-c2ccccc2)c(C(=O)/C=C/c2ccc(F)cc2)c(N2CCCC2)c1=O
12.2 µM: [3]
inactive: [1] 13 µM | [17] 6.5 µM | [18] 13.9 µM | [5] 4.99 µM | [6] 17.9 µM | [7] 4.41 µM | [9] 10.9 µM | [10] 14.3 µM | [12] 16 µM | [15] 13.2 µM | [16] 12.7 µM

Cc1ccccc1-n1c(C)nc2c1C(=O)c1ccccc1C2=O
inactive: [1] 44.8 µM | [2] 37.1 µM | [17] 35.1 µM | [4] > 100 µM | [5] 37.2 µM | [7] 32 µM | [8] 15.3 µM | [9] 35.4 µM | [10] 67.5 µM | [11] 67 µM | [12] > 100 µM | [13] > 100 µM | [15] 72.1 µM | [16] 47.1 µM
34.8 µM: [3]

CC#CC1C2CCCC1(CSc1ccccc1)NC(=O)O2 (stereo not given)
> 100 µM: [3]
inactive: [1] > 100 µM | [2] > 100 µM | [17] > 100 µM | [4] > 100 µM | [18] > 100 µM | [5] > 100 µM | [7] 30.3 µM | [8] > 100 µM | [9] > 100 µM | [10] > 100 µM | [11] > 100 µM | [13] > 100 µM | [14] > 100 µM | [15] > 100 µM | [16] > 100 µM

O=C(c1ccc(Cl)cc1Cl)N(/N=C/C=C/c1ccccc1)c1nnc(-c2ccccc2)c(-c2ccccc2)n1
inactive: [1] > 100 µM | [2] > 100 µM | [4] > 100 µM | [5] > 100 µM | [6] > 100 µM | [7] 70 µM | [8] > 100 µM | [9] > 100 µM | [10] > 100 µM | [11] > 100 µM | [12] > 100 µM | [13] > 100 µM | [14] > 100 µM | [15] > 100 µM | [16] > 100 µM
> 100 µM: [3]

CSc1ccc(/C=C2/C[N+](C)(C)C/C(=C/c3ccc(SC)cc3)C2=O)cc1
47 µM: [3]
inactive: [1] 13.7 µM | [2] 15.5 µM | [18] 24.5 µM | [7] 5.31 µM | [8] 4.16 µM | [9] > 10 µM | [10] 10.5 µM | [11] 27.2 µM | [12] 8.09 µM | [13] 20.1 µM | [14] 6.52 µM | [15] 2.54 µM
active: [16] 0.168 µM

c1cc2[se][se]c3c4cccc5[se][se]c(c(c1)c23)c54
inactive: [1] > 100 µM | [17] > 100 µM | [4] > 100 µM | [18] > 100 µM | [5] > 100 µM | [6] > 100 µM | [7] > 100 µM | [8] > 100 µM | [9] > 100 µM | [10] > 100 µM | [11] > 100 µM | [12] > 100 µM | [13] > 100 µM | [14] > 100 µM | [15] > 100 µM | [16] > 100 µM
